From paper PMC5382172 (Frontiers in Molecular Neuroscience, 2017)
Where “and” joins values, the source holds several entries; their conditions need not be identical. Equal entries are not always repeated.

What was measured:
[1] = biological target: T1, GluClαWT (GLC-1) homomeric receptor (Caenorhabditis elegans, UniProt G5EBR3); assay: Whole-cell patch clamp in CHO cells transfected with GluClαWT subunit alone; format: cell-based; conditions: αWT alone, 500 nM IVM, -60 mV
T1 construct: entry codes of the full-length subunits used in this study; expressed in transfected cells; host or cells: CHO cells, transient transfection, pcDNA3.1
T1 sequence (G5EBR3 21-461): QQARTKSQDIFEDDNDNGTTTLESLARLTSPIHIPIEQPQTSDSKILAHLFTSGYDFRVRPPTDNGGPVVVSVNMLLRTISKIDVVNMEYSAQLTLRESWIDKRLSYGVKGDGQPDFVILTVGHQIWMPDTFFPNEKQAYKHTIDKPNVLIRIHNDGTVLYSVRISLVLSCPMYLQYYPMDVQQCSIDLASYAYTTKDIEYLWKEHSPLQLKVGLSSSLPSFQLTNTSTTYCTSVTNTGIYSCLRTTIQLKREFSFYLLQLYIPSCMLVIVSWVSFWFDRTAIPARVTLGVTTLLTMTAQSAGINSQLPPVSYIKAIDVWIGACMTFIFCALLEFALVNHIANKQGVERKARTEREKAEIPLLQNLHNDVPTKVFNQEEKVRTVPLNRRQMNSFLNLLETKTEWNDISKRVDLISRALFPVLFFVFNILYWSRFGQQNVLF

GluClαWT/βWT receptor [2] = biological target: T2, GluClαWT/βWT receptor (Caenorhabditis elegans, UniProt G5EBR3+Q17328); assay: Whole-cell patch clamp in CHO cells, GluClαWT/βWT receptor; format: cell-based
T2 construct: entry codes of the full-length subunits used in this study; expressed in transfected cells; host or cells: CHO cells, transient co-transfection 1:1, pcDNA3.1
T2 sequence (G5EBR3 21-461): T1 sequence (G5EBR3 21-461)
T2 sequence (Q17328 23-434): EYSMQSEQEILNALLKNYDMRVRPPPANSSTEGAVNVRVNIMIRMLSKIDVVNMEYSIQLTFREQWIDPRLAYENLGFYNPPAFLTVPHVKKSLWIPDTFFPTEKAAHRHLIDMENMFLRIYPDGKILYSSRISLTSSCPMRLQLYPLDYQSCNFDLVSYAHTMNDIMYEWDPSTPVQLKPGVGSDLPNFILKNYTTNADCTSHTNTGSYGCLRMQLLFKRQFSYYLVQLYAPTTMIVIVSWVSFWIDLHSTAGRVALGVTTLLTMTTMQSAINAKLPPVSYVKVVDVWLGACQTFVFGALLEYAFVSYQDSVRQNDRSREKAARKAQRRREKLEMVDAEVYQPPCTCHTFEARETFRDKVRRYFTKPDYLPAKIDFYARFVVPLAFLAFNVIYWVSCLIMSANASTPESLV
Experimental: (§1) Chinese hamster ovary (CHO) cells were cultured as previously (Bar-Lev et al., [2011]) in Dulbecco’s Modified Eagle Medium (DMEM) containing 10% fetal calf serum, 2 mM glutamax, 100 Units/ml penicillin G and 100 μg/ml streptomycin, and grown in 5% CO2 at 37°C under 90%–95% humidity. The cells were seeded on glass coverslips (13-mm diameter) placed in a 24-multiwell plate. […] For the expression of GluCl receptors, cells were transiently co-transfected with pcDNA3.1 plasmids containing the ORFs of interest using transit-LT1 transfection reagent (Mirus, Madison, WI, USA), according to the manufacturer’s protocol. The cDNAs encoding the C. elegans GluClα (GLC-1) or its mutated versions and the GluClβ (GLC-2) subunits (200–600 ng per well) were used at 1:1 ratio. The pIRES-CD8 plasmid (200 ng per well) was added to enable the visualization of the expressing cells by beads coated with anti-CD8 antibodies (Invitrogen). For high-level expression of the GluClαF276A/βWT mutant receptor in experiments assigned to determine its IVM-EC50, we used the X-tremeGENE HP DNA Transfection Reagent (Roche Life Science). Recordings were performed 72–96 h following the transfection.
(§2) Whole-cell patch clamp recordings were performed as described previously (Bar-Lev et al., [2011]) in CHO cells that were prepared as detailed above. The normal external solution (NES) contained (in millimolar): 140 NaCl, 2.8 KCl, 2 CaCl2, 2 MgCl2, 10 glucose and 10 HEPES, adjusted to pH 7.35 with NaOH (310 mOsm/L). The pipette solution contained (in millimolar): 130 KCl, 4 MgCl2, 4 Na2ATP, 1 EGTA and 10 HEPES, adjusted to pH 7.35 with KOH (290 mOsm/L). The osmolarity of these solutions was maintained by adding sucrose. The electrode resistance was 6–10 MΩ when filled with the pipette solution. External solutions were applied onto the cell by using the VC-77SP fast-step system (Warner Instruments, Hamden, CT, USA) combined with N2 pressure of 3–4 psi to produce laminar flow of the external solution onto the patched cell. All measurements were performed at room temperature. The currents were measured with an Axopatch 200B patch-clamp amplifier (Molecular Devices, Sunnyvale, CA, USA) and a Digidata 1440A interface (Molecular Devices). Acquisition of recording data was performed at 2.5 kHz and recordings were low-pass filtered at 1 kHz, through a four-pole Bessel filter. The pClamp 10 software (Molecular Devices) was used for data acquisition. […] Five-hundred milliseconds after the application started (which is also after the current reached to its peak at −60 mV), the voltage was stepped from −60 mV to −80 mV for 50 ms followed by a 250-ms-long voltage ramp ranging from −80 mV to +80 mV.
(§3) Dose-response curves were fitted to the data points by a nonlinear regression using the Hill Equation 1,

[3] = biological target: T3, GluClα[SSS→GSD]/βWT receptor (Caenorhabditis elegans, UniProt G5EBR3+Q17328, S236G/S238D); assay: Whole-cell patch clamp in CHO cells, GluClα[SSS→GSD]/βWT receptor; format: cell-based; conditions: 500 nM IVM, -60 mV
T3 construct: entry codes of the full-length subunits used in this study; expressed in transfected cells; host or cells: CHO cells, transient co-transfection 1:1, pcDNA3.1
Experimental: as §1, with “For high-level expression of the GluClαF276A/βWT mutant receptor in experiments assigned to determine its IVM-EC50, we used the X-tremeGENE HP DNA Transfection Reagent (Roche Life Science). Recordings were performed 72–96 h following the transfection.” left out
(§4) Whole-cell patch clamp recordings were performed as described previously (Bar-Lev et al., [2011]) in CHO cells that were prepared as detailed above. […] The currents were measured with an Axopatch 200B patch-clamp amplifier (Molecular Devices, Sunnyvale, CA, USA) and a Digidata 1440A interface (Molecular Devices). […]

GluClαF276A/βWT receptor = biological target: T4, GluClαF276A/βWT receptor (Caenorhabditis elegans, UniProt G5EBR3+Q17328, F276A); assay: Whole-cell patch clamp in CHO cells, GluClαF276A/βWT receptor; format: cell-based
T4 construct: entry codes of the full-length subunits used in this study; expressed in transfected cells; host or cells: CHO cells, transient co-transfection, pcDNA3.1 (X-tremeGENE HP for the IVM-EC50 experiments)
Experimental: as §1, §2, §3

GluClαF276W/βWT receptor = biological target: T5, GluClαF276W/βWT receptor (Caenorhabditis elegans, UniProt G5EBR3+Q17328, F276W); assay: Whole-cell patch clamp in CHO cells, GluClαF276W/βWT receptor; format: cell-based; conditions: 500 nM IVM, -60 mV
T5 construct: entry codes of the full-length subunits used in this study; expressed in transfected cells; host or cells: CHO cells, transient co-transfection 1:1, pcDNA3.1
Experimental: as §1, with “For high-level expression of the GluClαF276A/βWT mutant receptor in experiments assigned to determine its IVM-EC50, we used the X-tremeGENE HP DNA Transfection Reagent (Roche Life Science). Recordings were performed 72–96 h following the transfection.” left out
as §4

GluClαWT/βWT receptor [4] = biological target: T2, GluClαWT/βWT receptor; design: method as in Degani-Katzav et al., [2016]; conditions: CHO cells co-transfected with WT α and β subunits; ref Degani-Katzav et al., [2016]; cited from earlier work
[5] = cumulative IVM concentrations, -60 mV

T4 sequence (G5EBR3 21-461 F276A, one chain of several): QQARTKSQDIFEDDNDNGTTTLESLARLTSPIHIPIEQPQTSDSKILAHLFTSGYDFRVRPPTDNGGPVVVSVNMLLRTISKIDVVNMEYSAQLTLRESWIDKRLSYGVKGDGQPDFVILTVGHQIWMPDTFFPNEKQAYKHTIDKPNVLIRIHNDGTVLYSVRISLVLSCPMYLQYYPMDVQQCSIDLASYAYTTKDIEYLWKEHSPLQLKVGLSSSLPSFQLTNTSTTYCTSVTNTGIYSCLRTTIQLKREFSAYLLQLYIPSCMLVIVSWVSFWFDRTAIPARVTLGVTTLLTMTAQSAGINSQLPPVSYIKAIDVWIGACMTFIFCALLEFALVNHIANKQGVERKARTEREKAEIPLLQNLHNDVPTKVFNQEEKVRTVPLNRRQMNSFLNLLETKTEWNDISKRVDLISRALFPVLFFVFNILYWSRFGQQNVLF
T5 sequence (G5EBR3 21-461 F276W, one chain of several): as the sequence (G5EBR3 21-461 F276A, one chain of several) above, with A256W counted along it
T3 sequence (G5EBR3 21-461 S236G/S238D, one chain of several): as the sequence (G5EBR3 21-461 F276A, one chain of several) above, with S216G, S218D, A256F counted along it

Structure (SMILES): CC[C@H](C)[C@H]1O[C@]2(CC[C@@H]1C)C[C@@H]1C[C@@H](C/C=C(\C)[C@@H](O[C@H]3C[C@H](OC)[C@@H](O[C@H]4C[C@H](OC)[C@@H](O)[C@H](C)O4)[C@H](C)O3)[C@@H](C)/C=C/C=C3\CO[C@@H]4[C@H](O)C(C)=C[C@@H](C(=O)O1)[C@]34O)O2 [IVM, ivermectin]
- IVM (500 nM) Amplitude [1]: 1.0 ± 0.3 (14) nA
- Fold decrease in Glu-EC50 observed after pre-exposure to IVM (GluClαWT/βWT receptor [2]; 7 nM IVM): ~ 5 fold and 5 fold
- fold-potentiation of Glu-elicited response by IVM (GluClαWT/βWT receptor [2]; 0.3 mM Glu before and after exposure to 7 nM IVM): ~ 6 fold and 5.9 ± 0.6 fold
- IVM (500 nM) Amplitude (GluClαWT/βWT receptor [2]; CHO cells, 500 nM IVM, -60 mV): 1.8 ± 0.1 nA
- EC50 (GluClαWT/βWT receptor [2]; [5]): 40 nM
- Hill coefficient of activation by IVM (GluClαWT/βWT receptor [2]; [5]): 1.5 and 1.5 ± 0.2
- IVM (500 nM) Amplitude [3]: 1.8 ± 0.4 nA
- increase in IVM-EC50 relative to GluClαWT/βWT (GluClαF276A/βWT receptor): 20 fold
- Fold decrease in Glu-EC50 observed after pre-exposure to IVM (GluClαF276A/βWT receptor; 50 nM IVM): ~ 8.5 fold
- magnitude of the IVM-elicited current (GluClαF276A/βWT receptor; 50 nM IVM, -60 mV, just before the second application of Glu): 70 pA
- decrease of IVM/Glu response ratio compared to GluClαWT/βWT (GluClαF276A/βWT receptor; 500 nM IVM (-60 mV) over Glu-EC50 concentration (+60 mV) peak currents): ~ 7 fold
- fold-potentiation of Glu-elicited response by IVM (GluClαF276A/βWT receptor; 1 mM Glu before and after exposure to 50 nM IVM): ~ 18 fold and 17.9 ± 1.8 fold
- IVM (500 nM) Amplitude (GluClαF276A/βWT receptor; CHO cells, 500 nM IVM, -60 mV): 0.2 ± 0.03 nA
- Hill coefficient of activation by IVM (GluClαF276A/βWT receptor; [5]): 3.5 and 3.5 ± 0.40
- EC50 (GluClαF276A/βWT receptor; cumulative IVM concentrations, -60 mV, high-level expression (X-tremeGENE HP)): 802 nM
- IVM (500 nM) Amplitude (GluClαF276W/βWT receptor): 1.2 ± 0.2 nA
- response to IVM (GluClαWT/βWT receptor [4]): robust responses
